Values belong to the compound of their own block, whether it stands above or below them.
Key:
ATeam 1.03 = target: T1, ATeam 1.03 (Bacillus subtilis, UniProt P37812); assay: FRET sensor titration; type: binding; details: read-out: C50
T1 construct: gene atpC; epsilon subunit between mseCFP and Venus

ChemoG1 (eGFP-HT7) = target: T2, ChemoG1 (eGFP-HT7) (Rhodococcus sp. (in: high G+C Gram-positive bacteria), UniProt P0A3G3, L47V/S58T/D78G/Y87F/L88M/C128F/A155T/E160K/A167V/A172T/K175M/C176G/K195N/A224E/N227D/E257K/T264A/H272N/Y273L/P291S/A292T); assay: X-ray crystallography, […] Å; type: binding; details: covalent; HaloTag labelling with chloroalkane; fluorophore at eGFP-HT7 interface
T2 construct: gene dhaA; eGFP fused directly to N terminus of HaloTag7; His10 removed with TEV protease; E. coli

[1] = target: HaloTag7 (HT7) E143R E147R L271E labeled with SiR, as the C-terminal part of ChemoG5 (construct for fluorescence spectroscopy); assay: FRET or BRET; intramolecular FRET of the purified eGFP–HT7 fusion (both partners on one chain), 200 nM protein labeled with 400 nM fluorophore–CA substrate, activity buffer (50 mM HEPES, 50 mM NaCl, pH 7.3) with 0.5 mg/ml BSA, 37 °C, plate reader

T1 sequence (P37812 whole entry): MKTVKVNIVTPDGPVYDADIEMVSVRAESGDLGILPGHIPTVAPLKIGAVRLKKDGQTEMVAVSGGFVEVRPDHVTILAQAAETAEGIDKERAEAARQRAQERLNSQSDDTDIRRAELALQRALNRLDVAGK

Compound: Nc1ncnc2c1ncn2[C@@H]1O[C@H](COP(=O)(O)OP(=O)(O)OP(=O)(O)O)[C@@H](O)[C@H]1O [ATP]
- EC50 (ATeam 1.03): 1800 µM

Compound: CN(C)c1ccc2c(-c3cc(C(=O)NCCOCCOCCCCCCCl)ccc3C(=O)[O-])c3ccc(=[N+](C)C)cc-3oc2c1 [TMR-CA]
- X-ray crystallography, 1.8 Å (ChemoG1 (eGFP-HT7)): X-ray structure of ChemoG1 labeled with the fluorophore tetramethylrhodamine

- FRET efficiency [1]: 95.8%
Compound: eGFP A206K T225R, as the N-terminal part of ChemoG5 (construct for fluorescence spectroscopy) (from UniProt P42212 3-238) (domain or fragment)
